Experimental data reported in patent publication US20250092360A1, “METHODS AND COMPOSITIONS FOR GENERATING SOMATOSTATIN+ INTERNEURONS FROM HUMAN FOREBRAIN NEURAL PROGENITOR CELLS” (Trailhead Biosystems Inc., priority 2023, published 2025).
“And” between values parts separate entries of the source, which are not always exact repeats. Equal entries are not always repeated. “Also recorded” adds a separate entry of the source.

B1: GDNF: Glial cell line-derived neurotrophic factor; can activate the GDNF pathway (protein, UniProt P39905 78-211, looked up)
Glial cell line-derived …: SPDKQMAVLPRRERNRQAAAANPENSRGKGRRGQRGKNRGCVLTAIHLNVTDLGLGYETKEELIFRYCSGSCDAAETTYDKILKNLSRNRRLVSDKVGQACCRPIAFDDDLSFLDDNLVYHILRKHSAKRCGCI

Assays:
[1] = tested on: forebrain-committed neural stem cells; assay: HD-DoE stage 2, 12-factor experiment: NKX2-1 expression; assay type: cell-based, human; conditions: model / dynamic profile, in words
Description: To further guide the differentiation of forebrain-committed neural stem cells to ventral forebrain neural stem cells at stage 2, a HD-DoE experiment was performed for 3 days after termination of stage 1 treatment. […] This 12-factor experiment included LDN193189, BMP7, PD0325901, MK2206, A8301, XAV939, CHIR99021, Purmorphamine, SANT-1, AGN193109, TTNPB and GSI-XX. […]

[2] = tested on: stage 2 neural stem cells; assay: HD-DoE stage 3 experiment: ASCL1, LHX6, DLX1 expression; assay type: cell-based, human
Description: To further guide the cells to medial ganglionic eminence progenitor fate, an additional HD-DoE experiment was performed for 3 days on cells that were treated with stage 1 and stage 2 media for total of 6 days prior to start of the experiment. This experiment included 13 effectors, LDN193189, A8301, GNF5837, AZD3147, GSI-XX, Takinib, PD0325901, PD173074, BLU9931, IGF-1, MHY1485, Purmorphamine and Prostratin. In this model, we focused on maximum expression of genes expressed in neuronal progenitor cells in medial ganglionic eminence (MGE) region including ASCL1, LHX6 and DLX1 (Silberberg et al. (2016) Neuron 92:59-74). When the model was optimized for maximum expression of ASCL1 at 1700, A8301, GSI-XX, Purmorphamine and Takinib, which is an inhibitor of TAK1 pathway, had the highest factor contributions, 18.1, 14.1, 12.7 and 10.1 respectively. […] MHY 1485 also had positive contribution however the factor was below 2 (FIG. 9).
Therefore, six effectors including A8301, GSI-XX, Takinib, GNF5837, IGF-1 and Purmorphamine were finalized as ingredients of stage 3 differentiation media. A representative recipe for Stage 3 differentiation is summarized below in Table 3.

[3] = tested on: medial ganglionic eminence (MGE)-derived neural progenitors; assay: HD-DoE stage 4, 12-factor experiment: SOX6 expression; assay type: cell-based, human; conditions: for impact on expression of SOX6: dynamic profile, in words; for factor contribution, expression of SOX6: positive impact, model optimized for maximal SOX6 at 1442
From the text: These effectors are small chemical compounds or proteins. They are commonly used during the differentiation of stem cells to specific cell linage. The choice of the effectors was based on the current literature on forebrain neural induction and differentiation of neural progenitor cells to mature neurons.
To evaluate the effectors on SST differentiation, experiments with 8 or 12 factors were designed to assess the responses of cells to 48 or more combinations of effectors in a range of concentrations. To analyze the models, we focused on expression of genes involved in development and patterning of the forebrain interneurons maturation including LHX6 (Liodis et al. (2007) J. Neurosci. 27:3078-3089; Yuan et al. (2018) Elife 7: e37382), SOX6 (Azim et al. (2009) Nature Neurosci. 12:1238-1247; Batista-Brito et al. (2009) Neuron 63:466-481), DLX5 (de Lombares et al. (2019) Aging (Albany NY) 11:6638; Wang et al. (2010) J. Neurosci. 30:5334-5345) and ASCL1 (Barretto et al. (2020) J. Neurosci. Meth. 334:108548; Shi et al. (2016) J. Biol. Chem. 291:13560-13570). At later stages we focused on interneuron maturation genes including somatostatin and absence of Parvalbumin (Horn and Nicoll (2018) Proc. Natl. Acad. Sci. 115:589-594). The impacts of each effector on gene expression level are defined by a parameter called factor contribution that is calculated for each effector during the modeling.
To identify the recipe for differentiation at stage 4, at least 48 different combinations of effectors were robotically prepared by the Design-of-Experiments compression through D-optimality. The effector combinations were prepared in a basal media and were subsequently added to the cells, which were then allowed to differentiate. Three days later, RNA extraction was performed, and gene expression levels were examined using quantitative PCR analysis. The data was normalized and modeled using partial least squares regression analysis to the effector design, resulting in the generation of gene-specific models, which after model tuning for maximal predictive power, provided explanation of the effectors ability to control the expression of individual genes, combinatorically, and individually. Solutions within the tested space could then be explored to address desirability.
IGF-1 activates the IGF-1 pathway, promotes neuron axonal growth, and establishes the synapse of interneurons. GDNF is the […] and can activate the GDNF pathway. MK2206 is an AKT inhibitor and can inhibit cell proliferation and promote neuronal maturation. PD173074 and BLU-554 are FGFR inhibitors. The FGF pathway is required for the maintenance of neural progenitor cells. Inhibition of the FGFR pathway promotes neural maturation. GSI-XX is a notch pathway inhibitor. Notch pathway inhibits neural progenitor cell differentiation. Inhibition of the Notch pathway promotes neural differentiation.
To find the set of factors that have the potential to optimize SOX6 in this experiment, a new assessment was done through dynamic profile analysis with focus on maximal expression of SOX6.

[4] = tested on: stage 2 neural stem cells; assay: Factor criticality analysis, stage 3 recipe; assay type: cell-based, human; conditions: other five stage 3 factors present
Description: (§1) To assess the impact of the elimination of each validated factor, dynamic profile analysis was used and compared the expression level of genes of interest in absence of each finalized factor while others are present.
In the stage 3 recipe, each of the six finalized factors were removed while the other five factors remained present and the expression levels of ASCL1, DLX1 and LHX6 were assessed compared to the presence of all six factors. […] As expected, in the absence of IGF-1, the value of DLX1 increases to 410, however, ASCL1 and LHX6 decreased to 1390 and 220, respectively.

[5] = tested on: medial ganglionic eminence (MGE)-derived neural progenitors; assay: Factor criticality analysis, stage 4 recipe; assay type: cell-based, human; conditions: FIG. 27, in words
Description: To assess the impact of elimination of each validated factor, dynamic profile analysis was again used to compare the expression levels of genes of interest in the absence of each finalized factor while the others were present in the media.
In the stage 4 recipe, each of the five finalized factors was removed while the other four factors remained present in the media and the expression level of forebrain genes was assessed compared to the presence of all 6 factors. SOX6 expression was reported to determine the cortical interneuron-precursors cell fate (see e.g., Azim et al. (2009) Nature Neurosci. 12:1238-1247; Batista-Brito et al. (2009) Neuron 63:466-481). Therefore, optimization of SOX6 expression was focused on at this stage.

[6] = tested on: human pluripotent stem cells; assay: HD-DoE stage 1, additional experiment: FEZF2 expression; assay type: cell-based
Description: To identify the recipe for stage 1 of differentiation, 96 different combinations of effectors generated using Design-of-Experiments compression through D-optimality were robotically prepared. The effector combinations were prepared in a basal media and were subsequently added to the cells, which were then allowed to differentiate. Three days later RNA extraction was performed, and gene expression was obtained using quantitative PCR analysis. The data were normalized and modeled using partial least squares regression analysis to the effector design, resulting in the generation of gene-specific models, which after model tuning for maximal Q2 predictive power, provided explanation of the effectors ability to control the expression of individual genes, combinatorically, and individually. Solutions within the tested space could then be explored to address desirability. To further enhance the conditions for forebrain differentiation from pluripotency, an additional HD-DoE experiment was performed. Additional gene regulatory models were obtained that were used for preparation of the differentiation protocol. The factors in this experiment included LDN193189, PD173074, BLU9931, Purmorphamine, SC79, MK2206, ZM336372, PD0325901, CHIR99021, XAV939, UCLA-GP130, Tofacitinib and GO6983. […] Dynamic profile analysis was also used to assess the interaction between the effectors.

[7] = tested on: forebrain-committed neural progenitor cells; assay: HD-DoE stage 5, 8-factor experiment (JQ1, Indolactam-V ...): Somatostatin expression; assay type: cell-based, human
Description: To further guide the differentiation of forebrain-committed neural progenitor cells to somatostatin interneuron cells at stage 5, HD-DoE experiments were performed for 3 days after termination of stage 4 treatment. At this time, we focused on maximum expression of SST that was expressed in Somatostatin (+) interneurons and minimum expression of Parvalbumin that is another type of interneurons. This 8-factor experiment included JQ1, (−)-Indolactam-V, Oleic acid, BDNF, IGF-1, 2-phospho-L-Ascorbic acid, Albumax, MK2206. When the model was maximized for expression of Somatostatin, six effectors were identified that could increase its expression levels, including (−)-Indolactam-V, Oleic acid, BDNF, 2-phospho-L-ascorbic acid, Albumax, and MK2206, as shown in FIG. 21. Using dynamic profile analysis, the results of which are shown in FIG. 22, the model was modified to achieve the maximum expression level of Somatostatin and therefore (−)-Indolactam-V, BDNF, and 2-phospho-L-ascorbic acid were included while JQ-1, Oleic acid, Albumax and MK2206 were excluded. Considering the model at different optimization settings for maximum differentiation of cells toward ventral forebrain, the recipe for stage 5 of differentiation included (−)-Indolactam-V, BDNF, IGF-1, and 2-phospho-L-ascorbic acid from this HD-Doe experiment.

[8] = tested on: human pluripotent stem cells; assay: Factor criticality analysis, stage 1 recipe (dynamic profile analysis); assay type: cell-based; conditions: 3500 with all factors; FIG. 12
From the text: as §1, with “present. […] When Purmorphamine was removed, levels of FEZF2 and SIX3 were decreased to 1000 and below 3000, while levels of OTX2 increased to 6500.” for “present.”

[9] = tested on: forebrain-committed neural progenitor cells; assay: HD-DoE stage 5, 8-factor experiment (GDNF, BDNF, NT-3 ...): Somatostatin expression; assay type: cell-based, human; conditions: FIG. 24 dynamic profile, in words
Description: To investigate the effects of other factors on differentiation of forebrain-committed neural progenitor cells to Somatostatin interneuron cells, an additional HD-DoE experiment was performed for 3 days on cells that were treated with stage 1 to stage 4 medium for a total of 12 days prior to the new experiment. This experiment, the results of which are shown in FIG. 23, included eight effectors, GDNF, BDNF, NT-3, ß-NGF, Linoleic acid, 5-Cholesten-3β, LIF and TGF-β3. In this model, we focused on maximum expression of Somatostatin gene expressed in Somatostatin (+) interneurons (Urban-Ciecko and Barth (2016) Nature Reviews Neurosci. 17:401-409). When the model was optimized for maximum expression of Somatostatin, BDNF, NT-3, beta-NGF and Linoleic acid had the highest factor contributions, 25.7, 2, 19.9, 23.5, respectively.
Therefore, the latter were excluded in the recipe.

Molecule | impact on expression of NKX2-1 [1] | impact on expression of ASCL1 ([2]; dynamic profile, in words) | impact on expression of LHX6 ([2]; dynamic profile, in words) | factor contribution, expression of ASCL1 ([2]; positive, model optimized for maximum ASCL1 at 1700) | impact on expression of SOX6 [3] | factor contribution, expression of SOX6 [3] | expression level of DLX1 when the factor is removed ([4]; 220 with all six factors) | expression level of LHX6 when the factor is removed ([4]; 240 with all six factors) | expression level of ASCL1 when the factor is removed ([4]; 1650 with all six factors) | effect on PVALB expression [5] | effect on SOX6 expression [5] | effect on Somatostatin expression [5] | impact on expression of FEZF2 ([6]; dynamic profile, in words) | factor contribution, expression of FEZF2 ([6]; positive impact, additional stage 1 experiment optimized for FEZF2) | impact on expression of Somatostatin ([7]; FIG. 21/22, in words) | factor contribution, expression of Somatostatin ([7]; positive, 8-factor experiment of FIG. 21) | expression level of FEZF2 when the factor is removed [8] | impact on expression of Somatostatin [9]
C[C@H](NC(=O)Cc1cc(F)cc(F)c1)C(=O)N[C@@H]1C(=O)N(C)c2ccccc2-c2ccccc21 [GSI-XX] | increase | Positive impact | Positive impact | 14.1 and 14 | positive impact | 3.6 | 50 | 140 | 1200 | minimal effect | increase | contribute | – | – | – | – | – | –
NC1(c2ccc(-c3nc4ccn5c(=O)[nH]nc5c4cc3-c3ccccc3)cc2)CCC1 [MK2206] | increase | – | – | – | positive impact | 7.2 | – | – | – | decrease | increase | – | positive impact | 11 and 12.2 | increase; also recorded: positive impact | 4.2 | 2700 | –
B1 | – | – | – | – | positive impact | 21 | – | – | – | – | increase | – | – | – | – | – | – | negative impact
